From patent US6632960B2, “Diaryliodonium salt catalysts made from iodotoluene and a method for preparing them” (Goldschmidt AG, priority 2002, dated 2003)

Assays:
[1] = Iodonium catalyst solubility studies: time to dissolve to a clear solution at 70° C.; conditions: Comparison 2: 3 parts by weight catalyst in 100 parts PC-1000 (epoxy siloxane monomer); 2.9 wt. % solution
[2] = Solution stability of catalyst solutions on storage at 25° C.; type: physicochemical; conditions: Comparison 3: 40 parts catalyst in 60 parts ERL 4221E; listed as iodotoluene catalyst

CCCCCCCCCCCCC(O)COc1ccc([I+]c2ccc(C)cc2)cc1 (centres unmarked) [PCX-2519, [4-(2-hydroxy-1-tetradecyloxy)-phenyl] 4-methylphenyliodonium hexafluorophosphate]
Time @ 70° C. (for clear solution) [1]: half and ½ hr.
Solution Stability (after 14 days @ 25° C.) [2]: remained stable and clear
